# Measurements from patent US12281080B2, “Quinoline-based compounds and methods of inhibiting CDK8/19” (University of South Carolina, priority 2018, dated 2025).
# Experiments:
# [1] = target: ABL1(M351T)-phosphorylated (Homo sapiens (Human), UniProt P00519, M351T); experiment: KINOMEscan scanMAX; assay type: binding; conditions: 2000 nM; read-out: Percent Control
# [2] = target: ABL1(T315I)-phosphorylated (Homo sapiens (Human), UniProt P00519, T315I); experiment: KINOMEscan scanMAX; assay type: binding; conditions: 2000 nM; read-out: Percent Control
# [3] = target: AKT1 (Homo sapiens (Human), UniProt P31749); experiment: KINOMEscan scanMAX; assay type: binding; conditions: 2000 nM; read-out: Percent Control
# [4] = target: AURKB (Homo sapiens (Human), UniProt Q96GD4); experiment: KINOMEscan scanMAX; assay type: binding; conditions: 2000 nM; read-out: Percent Control
# Chain of AURKB (Q96GD4 whole entry): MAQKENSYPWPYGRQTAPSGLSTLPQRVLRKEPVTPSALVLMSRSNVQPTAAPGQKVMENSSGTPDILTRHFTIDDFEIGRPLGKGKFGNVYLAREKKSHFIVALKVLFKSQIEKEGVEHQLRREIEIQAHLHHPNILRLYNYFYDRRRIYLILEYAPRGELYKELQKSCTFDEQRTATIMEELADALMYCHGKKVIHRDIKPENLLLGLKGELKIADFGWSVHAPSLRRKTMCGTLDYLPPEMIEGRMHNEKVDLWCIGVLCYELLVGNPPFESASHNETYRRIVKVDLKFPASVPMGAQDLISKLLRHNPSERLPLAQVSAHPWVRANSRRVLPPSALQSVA
# [5] = target: BUB1 (Homo sapiens (Human), UniProt O43683); experiment: KINOMEscan scanMAX; assay type: binding; conditions: 2000 nM; read-out: Percent Control
# [6] = target: CAMK2B (Homo sapiens (Human), UniProt Q13554); experiment: KINOMEscan scanMAX; assay type: binding; conditions: 2000 nM; read-out: Percent Control
# [7] = target: CAMKK1 (Homo sapiens (Human), UniProt Q8N5S9); experiment: KINOMEscan scanMAX; assay type: binding; conditions: 2000 nM; read-out: Percent Control
# [8] = target: CAMKK2 (Homo sapiens (Human), UniProt Q96RR4); experiment: KINOMEscan scanMAX; assay type: binding; conditions: 2000 nM; read-out: Percent Control
# [9] = target: CDK3 (Homo sapiens (Human), UniProt Q00526); experiment: KINOMEscan scanMAX; assay type: binding; conditions: 2000 nM; read-out: Percent Control
# Chain of CDK3 (Q00526 whole entry): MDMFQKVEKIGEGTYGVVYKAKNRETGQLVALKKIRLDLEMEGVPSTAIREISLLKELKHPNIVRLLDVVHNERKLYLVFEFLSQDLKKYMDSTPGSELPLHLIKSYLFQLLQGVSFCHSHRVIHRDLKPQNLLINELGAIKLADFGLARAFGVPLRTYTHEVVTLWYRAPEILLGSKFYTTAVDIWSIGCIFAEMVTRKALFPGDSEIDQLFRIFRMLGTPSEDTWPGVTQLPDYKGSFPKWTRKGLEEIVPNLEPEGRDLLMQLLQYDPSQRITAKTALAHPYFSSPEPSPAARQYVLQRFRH
# [10] = target: CSNK1A1 (Homo sapiens (Human), UniProt P48729); experiment: KINOMEscan scanMAX; assay type: binding; conditions: 2000 nM; read-out: Percent Control
# [11] = target: CSNK1G1 (Homo sapiens (Human), UniProt Q9HCP0); experiment: KINOMEscan scanMAX; assay type: binding; conditions: 2000 nM; read-out: Percent Control
# [12] = target: CSNK1G3 (Homo sapiens (Human), UniProt Q9Y6M4); experiment: KINOMEscan scanMAX; assay type: binding; conditions: 2000 nM; read-out: Percent Control
# Chain of CSNK1G3 (Q9Y6M4 whole entry): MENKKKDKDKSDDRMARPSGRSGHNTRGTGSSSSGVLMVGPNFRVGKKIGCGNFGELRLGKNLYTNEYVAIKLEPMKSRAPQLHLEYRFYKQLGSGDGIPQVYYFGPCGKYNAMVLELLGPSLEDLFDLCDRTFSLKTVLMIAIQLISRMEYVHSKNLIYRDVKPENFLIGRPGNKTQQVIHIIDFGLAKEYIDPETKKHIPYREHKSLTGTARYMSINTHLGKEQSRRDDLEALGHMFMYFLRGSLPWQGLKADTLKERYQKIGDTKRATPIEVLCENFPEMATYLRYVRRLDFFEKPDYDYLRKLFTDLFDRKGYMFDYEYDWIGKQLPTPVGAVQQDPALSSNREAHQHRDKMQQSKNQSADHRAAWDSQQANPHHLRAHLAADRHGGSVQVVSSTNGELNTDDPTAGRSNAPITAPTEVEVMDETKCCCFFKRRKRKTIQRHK
# [13] = target: DRAK1 (STK17A) (Homo sapiens (Human), UniProt Q9UEE5); experiment: KINOMEscan scanMAX; assay type: binding; conditions: 2000 nM; read-out: Percent Control
# Chain of DRAK1 (STK17A) (Q9UEE5 whole entry): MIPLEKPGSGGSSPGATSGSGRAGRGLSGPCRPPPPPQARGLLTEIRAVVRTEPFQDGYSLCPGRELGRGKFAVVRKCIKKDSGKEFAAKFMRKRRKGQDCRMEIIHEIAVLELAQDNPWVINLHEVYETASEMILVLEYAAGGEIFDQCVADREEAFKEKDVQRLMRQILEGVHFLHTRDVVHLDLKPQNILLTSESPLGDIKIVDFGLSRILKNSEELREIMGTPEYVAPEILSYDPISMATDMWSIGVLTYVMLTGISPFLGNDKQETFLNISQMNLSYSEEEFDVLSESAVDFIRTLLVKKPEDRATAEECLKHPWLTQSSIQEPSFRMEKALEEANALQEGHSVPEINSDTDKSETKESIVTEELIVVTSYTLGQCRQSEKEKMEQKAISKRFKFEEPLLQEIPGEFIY
# [14] = target: EGFR(S752-1759del) (Homo sapiens (Human), UniProt P00533, DEL752-759); experiment: KINOMEscan scanMAX; assay type: binding; conditions: 2000 nM; read-out: Percent Control
# [15] = target: FGFR3(G697C) (Homo sapiens (Human), UniProt P22607, G697C); experiment: KINOMEscan scanMAX; assay type: binding; conditions: 2000 nM; read-out: Percent Control
# [16] = target: FGR (Homo sapiens (Human), UniProt P09769); experiment: KINOMEscan scanMAX; assay type: binding; conditions: 2000 nM; read-out: Percent Control
# [17] = target: GCN2(Kin.Dom.2, S808G) (EIF2AK4) (Homo sapiens (Human), UniProt Q9P2K8, S808G); experiment: KINOMEscan scanMAX; assay type: binding; conditions: 2000 nM; read-out: Percent Control
# Chain of GCN2(Kin.Dom.2, S808G) (EIF2AK4) (Q9P2K8 590-1001 S808G): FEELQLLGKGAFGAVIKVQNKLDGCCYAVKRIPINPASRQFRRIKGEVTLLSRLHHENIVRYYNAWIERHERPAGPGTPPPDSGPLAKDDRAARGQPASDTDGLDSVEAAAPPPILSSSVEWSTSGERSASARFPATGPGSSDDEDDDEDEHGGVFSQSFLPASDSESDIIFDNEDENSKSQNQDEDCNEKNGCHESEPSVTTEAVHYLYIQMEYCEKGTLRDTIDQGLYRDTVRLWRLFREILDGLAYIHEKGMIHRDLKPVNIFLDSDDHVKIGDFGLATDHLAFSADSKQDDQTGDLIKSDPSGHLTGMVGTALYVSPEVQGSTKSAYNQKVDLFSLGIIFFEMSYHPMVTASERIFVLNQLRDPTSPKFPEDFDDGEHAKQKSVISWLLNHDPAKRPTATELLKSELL
# [18] = target: GRK7 (Homo sapiens (Human), UniProt Q8WTQ7); experiment: KINOMEscan scanMAX; assay type: binding; conditions: 2000 nM; read-out: Percent Control
# [19] = target: MAP3K4 (Homo sapiens (Human), UniProt Q9Y6R4); experiment: KINOMEscan scanMAX; assay type: binding; conditions: 2000 nM; read-out: Percent Control
# Chain of MAP3K4 (Q9Y6R4 whole entry): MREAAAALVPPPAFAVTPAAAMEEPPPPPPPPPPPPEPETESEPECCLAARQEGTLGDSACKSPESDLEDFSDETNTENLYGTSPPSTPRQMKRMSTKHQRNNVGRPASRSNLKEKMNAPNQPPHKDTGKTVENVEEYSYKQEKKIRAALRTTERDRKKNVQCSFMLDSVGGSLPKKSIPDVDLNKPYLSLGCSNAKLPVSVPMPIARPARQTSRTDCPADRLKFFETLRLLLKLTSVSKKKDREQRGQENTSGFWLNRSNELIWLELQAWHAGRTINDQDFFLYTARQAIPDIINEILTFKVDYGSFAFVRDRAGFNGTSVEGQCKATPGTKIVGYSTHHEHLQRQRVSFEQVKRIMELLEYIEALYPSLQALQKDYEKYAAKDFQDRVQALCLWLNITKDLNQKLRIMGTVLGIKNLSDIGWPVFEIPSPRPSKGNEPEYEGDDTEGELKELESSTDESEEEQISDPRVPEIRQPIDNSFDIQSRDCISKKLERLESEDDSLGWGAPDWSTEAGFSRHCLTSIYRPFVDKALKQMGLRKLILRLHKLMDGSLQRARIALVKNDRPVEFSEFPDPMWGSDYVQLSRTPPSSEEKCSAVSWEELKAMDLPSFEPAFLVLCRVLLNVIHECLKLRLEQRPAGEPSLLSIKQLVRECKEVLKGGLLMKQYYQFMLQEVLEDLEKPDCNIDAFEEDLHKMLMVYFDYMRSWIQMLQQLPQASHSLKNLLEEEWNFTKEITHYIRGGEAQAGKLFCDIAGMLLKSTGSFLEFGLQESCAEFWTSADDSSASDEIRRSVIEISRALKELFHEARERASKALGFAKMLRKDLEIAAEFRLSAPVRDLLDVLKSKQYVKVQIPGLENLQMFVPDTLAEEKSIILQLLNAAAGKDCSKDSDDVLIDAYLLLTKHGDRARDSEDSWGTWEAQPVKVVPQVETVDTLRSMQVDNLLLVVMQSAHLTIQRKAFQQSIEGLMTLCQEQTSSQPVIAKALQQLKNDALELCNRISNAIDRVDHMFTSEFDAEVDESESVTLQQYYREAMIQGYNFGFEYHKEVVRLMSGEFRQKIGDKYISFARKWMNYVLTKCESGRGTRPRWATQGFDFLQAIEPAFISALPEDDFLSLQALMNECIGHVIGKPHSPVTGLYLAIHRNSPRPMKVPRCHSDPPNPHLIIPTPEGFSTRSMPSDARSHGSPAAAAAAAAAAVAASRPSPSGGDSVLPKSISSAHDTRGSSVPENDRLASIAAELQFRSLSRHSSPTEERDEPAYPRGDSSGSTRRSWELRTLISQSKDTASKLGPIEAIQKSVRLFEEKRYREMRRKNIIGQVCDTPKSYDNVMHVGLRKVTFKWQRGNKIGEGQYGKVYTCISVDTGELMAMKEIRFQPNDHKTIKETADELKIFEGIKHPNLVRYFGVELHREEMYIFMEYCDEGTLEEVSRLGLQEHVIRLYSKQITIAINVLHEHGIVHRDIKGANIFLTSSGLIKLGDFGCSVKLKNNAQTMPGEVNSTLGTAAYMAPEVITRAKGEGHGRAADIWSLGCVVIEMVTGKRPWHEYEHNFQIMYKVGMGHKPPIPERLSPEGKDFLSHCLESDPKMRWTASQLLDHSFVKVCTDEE
# [20] = target: MLK1 (MAP3K9) (Homo sapiens (Human), UniProt P80192); experiment: KINOMEscan scanMAX; assay type: binding; conditions: 2000 nM; read-out: Percent Control
# [21] = target: p38-beta (MAPK11) (Homo sapiens (Human), UniProt Q15759); experiment: KINOMEscan scanMAX; assay type: binding; conditions: 2000 nM; read-out: Percent Control
# [22] = target: PCTK3 (CDK18) (Homo sapiens (Human), UniProt Q07002); experiment: KINOMEscan scanMAX; assay type: binding; conditions: 2000 nM; read-out: Percent Control
# [23] = target: PDPK1 (Homo sapiens (Human), UniProt O15530); experiment: KINOMEscan scanMAX; assay type: binding; conditions: 2000 nM; read-out: Percent Control
# [24] = target: PFCDPK1(P.falciparum) (CDPK1) (Plasmodium falciparum (isolate 3D7), UniProt P62344); experiment: KINOMEscan scanMAX; assay type: binding; conditions: 2000 nM; read-out: Percent Control
# [25] = target: PKN2 (Homo sapiens (Human), UniProt Q16513); experiment: KINOMEscan scanMAX; assay type: binding; conditions: 2000 nM; read-out: Percent Control
# [26] = target: PRKCD (Homo sapiens (Human), UniProt Q05655); experiment: KINOMEscan scanMAX; assay type: binding; conditions: 2000 nM; read-out: Percent Control
# [27] = target: RET(V804L) (Homo sapiens (Human), UniProt P07949, V804L); experiment: KINOMEscan scanMAX; assay type: binding; conditions: 2000 nM; read-out: Percent Control
# [28] = target: ULK3 (Homo sapiens (Human), UniProt Q6PHR2); experiment: KINOMEscan scanMAX; assay type: binding; conditions: 2000 nM; read-out: Percent Control
# [29] = target: WNK4 (Homo sapiens (Human), UniProt Q96J92); experiment: KINOMEscan scanMAX; assay type: binding; conditions: 2000 nM; read-out: Percent Control
# Chain of WNK4 (Q96J92 whole entry): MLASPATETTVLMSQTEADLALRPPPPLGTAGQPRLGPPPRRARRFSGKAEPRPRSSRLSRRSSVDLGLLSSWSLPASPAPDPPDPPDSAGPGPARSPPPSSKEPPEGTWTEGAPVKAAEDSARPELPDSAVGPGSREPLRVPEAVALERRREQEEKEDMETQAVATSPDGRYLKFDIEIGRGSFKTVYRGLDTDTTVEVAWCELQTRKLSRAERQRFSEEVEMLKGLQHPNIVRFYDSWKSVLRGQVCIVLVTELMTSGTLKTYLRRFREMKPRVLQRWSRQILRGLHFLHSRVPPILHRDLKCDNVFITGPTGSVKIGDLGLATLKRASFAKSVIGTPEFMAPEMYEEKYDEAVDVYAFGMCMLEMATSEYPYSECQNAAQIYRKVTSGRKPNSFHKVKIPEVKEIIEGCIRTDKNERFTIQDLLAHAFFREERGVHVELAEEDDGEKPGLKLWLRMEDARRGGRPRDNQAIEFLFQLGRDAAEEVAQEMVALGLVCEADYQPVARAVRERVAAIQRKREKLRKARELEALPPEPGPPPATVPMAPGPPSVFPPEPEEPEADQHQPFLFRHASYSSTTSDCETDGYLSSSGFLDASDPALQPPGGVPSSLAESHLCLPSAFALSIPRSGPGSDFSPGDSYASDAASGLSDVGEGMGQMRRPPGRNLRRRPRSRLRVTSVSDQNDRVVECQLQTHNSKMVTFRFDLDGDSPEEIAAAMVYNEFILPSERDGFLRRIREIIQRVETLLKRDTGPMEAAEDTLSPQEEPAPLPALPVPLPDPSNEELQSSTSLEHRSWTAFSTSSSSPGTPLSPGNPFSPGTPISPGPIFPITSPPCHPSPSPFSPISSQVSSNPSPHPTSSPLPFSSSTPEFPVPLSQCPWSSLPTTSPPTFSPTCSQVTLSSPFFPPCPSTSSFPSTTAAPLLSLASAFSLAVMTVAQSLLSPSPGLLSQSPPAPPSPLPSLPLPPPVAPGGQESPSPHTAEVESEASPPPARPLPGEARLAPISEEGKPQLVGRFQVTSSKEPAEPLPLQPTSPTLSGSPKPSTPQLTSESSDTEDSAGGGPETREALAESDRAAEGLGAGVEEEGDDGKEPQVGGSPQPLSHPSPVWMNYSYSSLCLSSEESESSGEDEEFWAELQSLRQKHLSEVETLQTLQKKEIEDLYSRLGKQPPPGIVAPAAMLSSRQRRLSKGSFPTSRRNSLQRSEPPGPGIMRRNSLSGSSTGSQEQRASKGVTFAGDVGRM
# [30] = test system: CDK8/19; experiment: Wash-off assay, MYC and JUN expression in 293 cells (QPCR); assay type: cell-based, human; conditions: 1 μM for 2 hours, then wash-off; MYC and JUN
# Description: RNA was extracted at different time points after wash-off (up to 24 hrs) and expression of MYC and JUN genes that are CDK8/19-dependent in these cells was measured by QPCR. […] In contrast, after Senexin C treatment and wash-off, the effects of Senexin C were largely retained for at least 6 hrs after wash-off.
# [31] = Mouse pharmacokinetics, intraperitoneal, serum; assay type: in vivo, mice
# Description: […] Blood samples were collected at different time points (5 mice per time point) and Senexin C concentration in the serum was measured by LC/MS/MS.
# [32] = Serum and tumor PK in mice bearing 22rv1 xenograft tumors; assay type: in vivo; conditions: i.p. 20 mg/kg, male NcrNU mice
# Description: To evaluate the PK of Senexin C in tumor tissues, Senexin C dissolved in 5% Dextrose was administered i.p. to male NcrNU mice bearing 22rv1 xenograft tumors (300˜500 mm^3) at 20 mg/kg. Both blood and tumor samples were collected at three different time points (3 mice per time point) after administration and Senexin C concentration in the serum and tumor tissue was measured by LC/MS/MS.
# [33] = test system: NFκB-dependent promoter in CDK8/19 deficient (double-knockout) reporter cells; experiment: NFκB-dependent luciferase reporter assay, CDK8/19 double-knockout vs wild-type 293 cells; conditions: double-knockout vs parental reporter cells
# Description: The second cell-based assay measures the effects of CDK8/19 on the expression of firefly luciferase reporter from a NFκB-dependent promoter in 293 cells.
smiles,measurement,setting,value
"CN1CCN(C(=O)c2ccc3cc(CCNc4ccnc5ccc(C#N)cc45)ccc3c2)CC1 [compound 6148, 4-((2-(6-(4-methylpiperazine-1-carbonyl)naphthalen-2-yl)ethyl)amino)quinoline-6-carbonitrile]",remaining binding at 2 µM,[1],80%
same,remaining binding at 2 µM,[2],76%
same,remaining binding at 2 µM,[3],89%
same,remaining binding at 2 µM,[4],75%
same,remaining binding at 2 µM,[5],68%
same,remaining binding at 2 µM,[6],97%
same,remaining binding at 2 µM,[7],100%
same,remaining binding at 2 µM,[8],82%
same,remaining binding at 2 µM,[9],86%
same,remaining binding at 2 µM,[10],76%
same,remaining binding at 2 µM,[11],100%
same,remaining binding at 2 µM,[12],76%
same,remaining binding at 2 µM,[13],100%
same,remaining binding at 2 µM,[14],99%
same,remaining binding at 2 µM,[15],93%
same,remaining binding at 2 µM,[16],90%
same,remaining binding at 2 µM,[17],93%
same,remaining binding at 2 µM,[18],87%
same,remaining binding at 2 µM,[19],81%
same,remaining binding at 2 µM,[20],87%
same,remaining binding at 2 µM,[21],80%
same,remaining binding at 2 µM,[22],97%
same,remaining binding at 2 µM,[23],86%
same,remaining binding at 2 µM,[24],83%
same,remaining binding at 2 µM,[25],89%
same,remaining binding at 2 µM,[26],83%
same,remaining binding at 2 µM,[27],88%
same,remaining binding at 2 µM,[28],70%
same,remaining binding at 2 µM,[29],69%
same,Time effects largely retained after wash-off,[30],at least 6 hrs
same,elimination rate k,"[31]; i.p. 19 mg/kg, female FVB mice",0.94 h⁻¹
same,t1/2,"[31]; i.p. 19 mg/kg, female FVB mice",44.4 min
same,Half-life higher than Senexin B,"[31]; i.p., mice",> 4 fold
same,half-life,"[31]; mouse, serum, ip, i.p. 19 mg/kg, female FVB mice",44.4 min
same,AUC,"[31]; mouse, serum, ip, i.p. 19 mg/kg, female FVB mice, read-out: AUC",1570 ng·h/mL
same,Cmax,"[31]; mouse, serum, ip, i.p. 19 mg/kg, female FVB mice, read-out: Cmax",1160 ng/mL
same,bioavailability,"[31]; mouse, serum, ip, i.p. 19 mg/kg, female FVB mice, read-out: bioavailability (F %)",73%
same,Clearance from tumor tissue compared with blood,[32],much slower clearance rate
same,Kp,"[32]; mouse, tumor tissue (relative to serum), ip, read-out: Amount in tumor tissue relative to blood",5 to 10
same,IC50 in CDK8/19-deficient cells relative to wild-type cells,[33],> 50 times
